Experimental data from patent US8404677B2, “Kinase inhibitors” (Genosco, priority 2009, dated 2013).

What was measured:
HS 578T = experiment: cells; type: cell-based; settings: HS 578T (Breast Cancer)
HOP-62 = experiment: cells; type: cell-based; settings: HOP-62 (NSCLC)
U251 = experiment: cells; type: cell-based; settings: U251 (CNS Cancer)
[1] = tested on: TNF-α release in THP-1 cells, LPS stimulation; experiment: SYK independent TNF-α release assay (LPS stimulation); type: cell-based, human
Method: For SYK independent TNF-α release assay (i.e., via lipopolysaccharide (LPS)-stimulation), THP-1 cells derived from human monocytic cells were obtained from the American Type Culture Collection (ATCC, Manassas, Va.). This cell line was maintained with an RPMI medium (GIBCO™) containing 10 fetal bovine serum (FBS, GIBCO™) and 0.05 mM 2-mercaptoethanol. The THP-1 cells were seeded at 1×10^5 cells/100 μL/well into 96-well culture plates, and treated with lipopolysaccharide (1 μg/ml), and serially diluted compound was then added. After an 18-hour incubation period at 37° C., supernatants were collected for the determination of the TNF-α level by ELISA, and the remaining cells were subjected to an MTT assay to determine the cytotoxic effects of compound.

SF-539 = experiment: cells; type: cell-based; settings: SF-539 (CNS Cancer)
MALME-3M = experiment: cells; type: cell-based; settings: MALME-3M (Melanoma)
OVCAR-8 = experiment: cells; type: cell-based; settings: OVCAR-8 (Ovarian Cancer)
[2] = Homo sapiens, read-out: LC50 (the source's name)

## O=c1[nH]ccc2nc(N3CCC(O)CC3)nc(Nc3cccc(C(F)(F)F)c3)c12 [Compound 6, 2-(4-hydroxypiperidin-1-yl)-4-(3-(trifluoromethyl)phenylamino)pyrido[4,3-d]pyrimidine-5(6H)-one]
HS 578T
  TGI: 14.1 µM
HS 578T; Homo sapiens
  GI50: 1.95 µM
  IC50: 43.7 µM
HS 578T; [2]
  CC50: 100 µM
HOP-62
  TGI: 18.6 µM
HOP-62; Homo sapiens
  GI50: 4.37 µM
  IC50: 8.91 µM
HOP-62; [2]
  CC50: 79.4 µM
U251; Homo sapiens, U-251
  GI50: 6.17 µM
  IC50: 11.7 µM
U251; Homo sapiens, U-251, read-out: LC50 (the source's name)
  CC50: 100 µM
U251
  TGI: 100 µM
[1]; Homo sapiens, LPS stimulation, At 0.3 μM, THP-1, read-out: Inhibition of TNF-α Release (percentage inhibition)
  inhibition at 0.3 µM: 58%
[1]; Homo sapiens, LPS stimulation, At 1 μM, THP-1, read-out: Inhibition of TNF-α Release (percentage inhibition)
  inhibition at 1 µM: 68.9%
[1]; LPS stimulated release
  percentage inhibition of TNF-α release compared with dexamethasone: greater than or equal to those exhibited by dexamethasone
SF-539; Homo sapiens
  GI50: 5.25 µM
  IC50: 13.5 µM
SF-539; [2]
  CC50: 100 µM
SF-539
  TGI: 38.9 µM
MALME-3M; Homo sapiens
  GI50: 2.63 µM
  IC50: 9.77 µM
MALME-3M; [2]
  CC50: 32.4 µM
MALME-3M
  TGI: 7.94 µM
OVCAR-8; Homo sapiens
  GI50: 3.31 µM
  IC50: 5.01 µM
OVCAR-8; [2]
  CC50: 100 µM
OVCAR-8
  TGI: 40.7 µM
